These results are taken from patent US20250129096A1, “ANNULATED 2-AMINO-3-CYANO THIOPHENES AND DERIVATIVES FOR THE TREATMENT OF CANCER” (Boehringer Ingelheim Int'l GmbH Corp., priority 2021, published 2025).

The target in one series is T1, CYP3A4 (Homo sapiens, UniProt P08684).
T1 construct: assayed in human liver microsomes (0.02 mg/mL) with midazolam (15 μM) as a substrate; from tissue; host or cells: human liver microsomes
Nature of the series: Mechanism based inhibition of CYP3A4 assay (MBI 3A4). Particulars: 25 uM, hydroxy-midazolam formation after 30 min preincubation relative to 0 min, human liver microsomes. The series is classed as in vitro ADME. The procedure: After preincubation, the incubate is diluted 1:10 and the substrate midazolam is added for the main incubation (15 min). The main incubation is quenched with acetonitrile and the formation of hydroxy-midazolam is quantified via LC/MS-MS. The formation of hydroxy-midazolam from the 30 min preincubation relative to the formation from the 0 min preincubation is used as a readout. Values of less than 100% mean that the substrate midazolam is metabolized to a lower extent upon 30 min preincubation compared to 0 min preincubation. In general low effects upon 30 min preincubation are desired (corresponding to values close to 100%/not different to the values determined with water control).

The test system of series [1] is SK-CO-1 cells (CRC, G12V). Nature of the series: SK-CO-1 CTG proliferation assay (120 h). Format: cell-based. Particulars: Homo sapiens, CellTiter-Glo. As to the method: SK—CO-1 cells (ATCC HTB-39) are dispensed into 384-well plates, flat and clear bottom (Greiner, PNr. 781091) at a density of 500 cells per well in 60 μL EMEM (Sigma M5650)+10% Fetal Calf Serum (HyClone, PNr.: SH30084.03) and incubated at 37° C. in a CO2 incubator overnight. The next day, compounds (10 mM stock in DMSO) are added with the ECHO acoustic liquid handler system (Beckman Coulter), including DMSO controls. Plates are incubated for 120 h, and cell viability is measured using CellTiter-Glo luminescent cell viability reagent (Promega product code G7570). Viability (stated as percent of control) is defined as relative luminescence units RLU of each well divided by the RLU of cells in DMSO controls. IC50 values are determined from viability measurements by non-linear regression using a four-parameter model.
Background: ATP-based viability assays read luminescence as a measure of living cells.

Another series addresses T2, KRAS (WT)::SOS1 (Homo sapiens, UniProt P01116, C118S).
T2 construct: KRAS (WT) 1-169, N-terminal 6His-tag for purification, cleaved off; 6His-tag (N, cleaved yes); TEV cleavage site
In words: KRAS::SOS1 AlphaScreen binding assay, KRAS WT. The procedure:
(§1) Low IC50 values in this assay setting are indicative of strong inhibition of protein-protein interaction between SOS1 and KRAS:
(§2) These assays measure the inhibitory effect of compounds on KRAS mutant protein-protein interactions using the Alpha Screen technology by Perkin Elmer.
(§3) For the chosen highest assay concentration of 100 μM, 150 nL of compound solution are transferred from a 10 mM DMSO compound stock solution. A series of eleven fivefold dilutions per compound are transferred to the assay plate, compound dilutions are tested in duplicates. DMSO are added as backfill to a total volume of 150 nL.
(§4) The assays run on a fully automated robotic system in a darkened room below 100 Lux. To 150 nl of compound dilution 10 μl of a mix including KRAS mutant protein, SOS1 (final assay concentrations see above) and GDP nucleotide (Sigma G7127; final assay concentration 10 μM) in assay buffer (1×PBS, 0.1% BSA, 0.05% Tween 20) are added into columns 1-24. After 30 minutes incubation time 5 μl of Alpha Screen bead mix in assay buffer are added into columns 1-23.
(§5) Plates are kept at room temperature in a darkened incubator. After an additional 60 minutes incubation time the signal is measured in a PerkinElmer Envision HTS Multilabel Reader using the AlphaScreen specs from PerkinElmer.
(§6) IC50 values are calculated and analyzed with Boehringer Ingelheim's MEGALAB IC50 application using a 4 parametric logistic model.
A general note: In Alpha technology, singlet oxygen from a donor bead excites a nearby acceptor bead.

Another series deals with T3, KRAS (G12V)::SOS1 (Homo sapiens, UniProt P01116, C118S/G12V).
T3 construct: KRAS (G12V) 1-169, N-terminal 6His-tag, for purification, cleaved off; 6His-tag (N, cleaved yes); TEV cleavage site
In words: KRAS::SOS1 AlphaScreen binding assay, KRAS G12V. As to the method:
as §1, §2, §3, §4, §5, §6

Series [2] concerns NCI-H358 cells (NSCLC, G12C). In words: NCI-H358 CTG proliferation assay (120 h), assay 2. The series is classed as cell-based. Particulars: Homo sapiens, CellTiter-Glo, 384-well, 200 cells per well. The procedure:
NCI-1H358 cells (ATCC No. CRL-5807) are dispensed into white bottom opaque 96 well plates (Perkin Elmer cat no. 5680) at a density of 2000 cells per well in 100 μL RPM 1-1640 ATCC-Formulation (Gibco #A10491)+10% FCS (fetal calf serum) (assay 1) or into black 384-well plates, flat and clear bottom (Greiner, PNr. 781091) at a density of 200 cells per well in 60 μl RPMI-1640 ATCC-Formulation (Gibco #A10491)+10% FCS (fetal calf serum) (assay 2). […] Compounds (10 mM stock in DMSO) are added at logarithmic dose series using the HP Digital Dispenser D300 (Tecan) (assay 1) or the ECHO acoustic liquid handler system (Beckman Coulter) (assay 2), normalizing for added DMSO and including DMSO controls. For the TO time point measurement, untreated cells are analyzed at the time of compound addition. Plates are incubated for 120 h, and cell viability is measured using CellTiter-Glo luminescent cell viability reagent (Promega product code G7570). Viability (stated as percent of control) is defined as relative luminescence units RLU of each well divided by the RLU of cells in DMSO controls. IC50 values are determined from viability measurements by non-linear regression using a four-parameter model.

For series [3], the system named is GP2D cells (colorectal cancer, G12D). In words: GP2D proliferation assay (120 h). Format: cell-based. Particulars: CellTiter-Glo. As to the method:
GP2D cells (ATCC No. CRL-5807) are dispensed into white 384-well plates, flat and white bottom (Perkin Elmer, 6007680) at a density of 500 cells per well in 40 μl DMEM (Sigma, D6429)+1× GlutaMAX (Gibco, 35050038)+10% FCS (fetal calf serum). […] Compounds (10 mM stock in DMSO) are added at logarithmic dose series using the HP Digital Dispenser D300 (Tecan), including DMSO controls and normalizing for added DMSO. For the TO time point measurement, untreated cells are analyzed at the time of compound addition. Plates are incubated for 120 h, and cell viability is measured using CellTiter-Glo luminescent cell viability reagent (Promega product code G7570). Viability (stated as percent of control) is defined as relative luminescence units RLU of each well divided by the RLU of cells in DMSO controls. IC50 values are determined from viability measurements by non-linear regression using a four-parameter model.

T1 sequence (P08684 whole entry): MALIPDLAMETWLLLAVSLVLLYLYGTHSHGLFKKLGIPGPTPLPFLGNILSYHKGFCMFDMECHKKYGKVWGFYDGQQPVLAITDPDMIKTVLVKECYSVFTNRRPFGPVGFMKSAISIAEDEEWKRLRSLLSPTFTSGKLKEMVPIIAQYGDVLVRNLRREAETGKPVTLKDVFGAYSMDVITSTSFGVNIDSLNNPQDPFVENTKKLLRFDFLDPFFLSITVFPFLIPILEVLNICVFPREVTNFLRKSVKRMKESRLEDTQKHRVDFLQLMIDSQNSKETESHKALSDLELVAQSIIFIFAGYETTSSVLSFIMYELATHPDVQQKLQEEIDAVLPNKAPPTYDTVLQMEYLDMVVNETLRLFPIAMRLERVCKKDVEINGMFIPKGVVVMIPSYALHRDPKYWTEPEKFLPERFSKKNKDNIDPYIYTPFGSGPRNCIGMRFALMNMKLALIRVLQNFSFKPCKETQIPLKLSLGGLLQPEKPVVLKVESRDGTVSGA
T3 sequence (P01116 1-169 isoform P01116-2 G12V/C118S): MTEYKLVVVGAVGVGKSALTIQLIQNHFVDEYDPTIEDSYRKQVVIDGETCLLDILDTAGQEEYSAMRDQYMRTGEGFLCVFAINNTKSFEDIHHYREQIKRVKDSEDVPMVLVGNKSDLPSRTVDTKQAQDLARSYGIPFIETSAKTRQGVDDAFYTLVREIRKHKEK
T2 sequence (P01116 1-169 isoform P01116-2 C118S): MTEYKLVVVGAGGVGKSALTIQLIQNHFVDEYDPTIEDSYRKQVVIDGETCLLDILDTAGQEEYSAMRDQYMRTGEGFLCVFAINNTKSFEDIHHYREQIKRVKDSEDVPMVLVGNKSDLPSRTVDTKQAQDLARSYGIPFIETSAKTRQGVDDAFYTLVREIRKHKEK

On to `C[C@H]1CNCCCN1c1nccc(-c2noc3c2CCC[C@@]32CCCc3sc(N)c(C#N)c32)n1` (single isomer, unassigned) [IIb-5], for which the “MBI 3A4” value at CYP3A4 was 65%. Besides, the 50% inhibitory concentration (IC50) in series [1] came out at 563 nM; at KRAS (WT)::SOS1, 12 nM.
`CC1Cc2c(-c3ccnc(N4CCCNC[C@@H]4C)n3)noc2C2(CCCc3sc(N)c(C#N)c32)C1` (stereo partly drawn) [IIb-1] had an IC50 in series [1] of 2690 nM.
The same measure, in the same setting: the value for `C[C@H]1CNCCCN1c1nccc(-c2noc3c2CC(F)(F)CC32CCCc3sc(N)c(C#N)c32)n1` (stereo partly drawn) [IIb-2] was 6240 nM.
Consider `C[C@H](Oc1ccnc(-c2noc3c2CCC[C@@]32CCCc3sc(N)c(C#N)c32)n1)[C@@H]1CCCN1C` [IIb-3], for which, on CYP3A4, the “MBI 3A4” value came to 69%. In addition, the IC50 in series [1] stood at 285 nM; at KRAS (G12V)::SOS1 it was 2 nM; at KRAS (WT)::SOS1 it was 7 nM; in series [2], 743 nM; in series [3] it was 171 nM.
In turn, `C[C@H]1CNCCCN1c1nccc(-c2noc3c2CSCC32CCCc3sc(N)c(C#N)c32)n1` (stereo partly drawn) [IIb-4] showed a 50% inhibitory concentration (IC50) in series [1] of 2390 nM.
The same measure, in the same setting: the figure for `C[C@H]1CNCCCN1c1nccc(-c2noc3c2OCCC32CCCc3sc(N)c(C#N)c32)n1` (stereo partly drawn) [IIb-7] is 455 nM.
For the compound `C[C@H](Oc1nccc(-c2noc3c2CCC[C@@]32CCCc3sc(N)c(C#N)c32)n1)[C@@]1(C)CCCN1C` [IIe-1], in series [1], 1030 nM corresponded to half-maximal inhibition (IC50).
In the case of `C[C@H]1CNCCN1c1nccc(-c2noc3c2CCC[C@@]32CCCc3sc(N)c(C#N)c32)n1` [IIf-1], the IC50 in series [1] amounted to 600 nM; in series [2] it was 3000 nM; in series [3] it was 228 nM.
Consider `C[C@@H]1NCCCN(c2nccc(-c3onc4c3CCC[C@@]43CCCc4sc(N)c(C#N)c43)n2)[C@H]1C` [Ib-2], for which half-maximal inhibition in series [1] (IC50) required 457 nM.
With `C[C@H]1CNCCCN1c1ncnc(-c2onc3c2CCC[C@@]32CCCc3sc(N)c(C#N)c32)n1` [Ib-4], the IC50 in series [1] worked out at 930 nM.
Turning to `C[C@H]1[C@@H]2CCCN2CCCN1c1nccc(-c2onc3c2CCC[C@@]32CCCc3sc(N)c(C#N)c32)n1` [Id-1], the IC50 in series [1] was 4680 nM; on KRAS (G12V)::SOS1, 8 nM; on KRAS (WT)::SOS1, 9 nM; in series [3], 69 nM.
Turning to `CO[C@@H]1C[C@@H]([C@H](C)Oc2nccc(-c3onc4c3CCC[C@@]43CCCc4sc(N)c(C#N)c43)n2)N(C)C1` [Ie-1], the IC50 in series [1] is 2520 nM.
`C[C@H](Oc1nccc(-c2onc3c2CCC[C@@]32CCCc3sc(N)c(C#N)c32)n1)[C@@H]1C[C@@H](F)CN1C` [Ie-2]: the IC50 was 1040 nM in series [1], 23 nM at KRAS (G12V)::SOS1 and 526 nM in series [3].
In the case of `CCN1[C@H]2C[C@H]2C[C@H]1[C@H](C)Oc1nccc(-c2onc3c2CCC[C@@]32CCCc3sc(N)c(C#N)c32)n1` [Ie-3], the IC50 in series [1] was determined as 817 nM; in series [2], 1710 nM.
The compound `CC(Oc1nccc(-c2onc3c2CCC[C@@]32CCCc3sc(N)c(C#N)c32)n1)C12CCCN1CCC2` (stereo partly drawn) [Ie-5] returned an IC50 in series [1] of 798 nM.
On to `C[C@H]1CNCCCN1c1nccc(-c2onc3c2CCC[C@@]32CCCc3sc(N)c(C#N)c32)n1` [If-1], for which the “MBI 3A4” value on CYP3A4 is 60%. The IC50 in series [1] was determined as 2730 nM; on KRAS (G12V)::SOS1 it was 201 nM; at KRAS (WT)::SOS1, 43 nM; in series [2], 2200 nM; in series [3] it was 936 nM.
As to `C[C@H](Oc1nccc(-c2onc3c2CCC[C@@]32CCCc3sc(N)c(C#N)c32)n1)[C@@H]1C[C@@H]2C[C@@H]2N1` [If-2], the IC50 in series [1] was found to be 7920 nM.
In the case of `C[C@H](Oc1nccc(-c2onc3c2CCC[C@@]32CCCc3sc(N)c(C#N)c32)n1)[C@@H]1C[C@@H]2C[C@@H]2N1C` [Ih-1], the half-maximal inhibitory concentration (IC50) in series [1] came to 398 nM; in series [2], 3570 nM.

What is called IC50 is the concentration needed to halve the response being measured.
